# Laboratory results as given in US7851466B2, “Pyrimidine compounds and uses thereof” (Synta Pharmaceuticals Corp., priority 2004, dated 2010).
# Legend:
# [1] = tested on: DNBS-induced distal colitis in Wistar derived rats; experiment: Dinitrobenzene sulfonic acid-induced inflammatory bowel syndrome model rats; format: in vivo, rat; conditions: oral, 24 and 2 hours before DNBS instillation and then daily for 5 days
# Method: Treatment of Crohn's disease in dinitrobenzene sulfonic acid-induced inflammatory bowel syndrome model rats: Wistar derived male or female rats weighing 200±20 g and fasted for 24 hours were used. Distal colitis was induced by intra-colonic instillation of 2,4-dinitrobenzene sulfonic acid (DNBS, 25 mg in 0.5 mL ethanol 30%) after which air (2 mL) was gently injected through the cannula to ensure that the solution remained in the colon. A test compound and/or vehicle was administered orally 24 and 2 hours before DNBS instillation and then daily for 5 days. One control group was similarly treated with vehicle alone while the other is treated with vehicle plus DNBS. The animals were sacrificed 24 hours after the final dose of test compound administration and each colon was removed and weighed. Colon-to-body weight ratio was then calculated for each animal according to the formula: Colon (g)/BW×100. The “Net” increase in ratio of Vehicle-control+DNBS group relative to Vehicle-control group was used as a base for comparison with test substance treated groups and expressed as “% Deduction.” Pyrimidine compounds of this invention (e.g., Compound 12) reproducibly had about 30% deduction. A 30% or more reduction in colon-to-body weight ratio, relative to the vehicle treated control group, was considered significant.
# These experiments were repeated three times and the effects were reproducible.
# IL-23 = experiment: Inhibition of IL-23 in stimulated human PBMC (p19 capture ELISA); format: cell-based
# From the text: The level of inhibition of IL-23 inhibition by a compound of the invention can be measured by a similar assay in which human peripheral blood mononuclear cells (PBMC) or human monocytic cell line (THP-1) are stimulated with a combination of human interferon-γ (IFNγ) and lipopolysaccharide (LPS) or a combination of IFNγ and Staphylococcus aureus Cowan I (SAC) in the presence of a test compound. The level of inhibition of IL-23 production can be measured by determining the amount of p19 by using a sandwich ELISA assay with antibodies the recognize p19 subunit of IL-23. IC50 of the test compound can then be determined. One such assay is disclosed herein in Example 30.
# Therefore, inhibition of IL-23 in addition to IL-12 is expected. In order to confirm the hypothesis, an assay was established to specifically detect IL-23 using polyclonal antibodies recognizing p19 (R&D Systems, MN), an IL-23 specific subunit. A 96-well plate was coated with the antibodies at 1 μg/ml, and after washing incubated with the supernatants of human peripheral blood mononuclear cells (PBMC). The culture was stimulated with 1 μg/ml of liposaccharide (LPS) (FIG. 2) or 0.025% of S. aureus Cowan I (SAC) (FIG. 1) in the presence of test compound after IFN-γ priming. The captured IL-23 was then detected by a biotinylated goat anti-human p40 antibody that binds to p40 subunit of human IL-12 and IL-23 as a monomer or in the context of the respective heterodimer (Part 840099 of product DY1240 from R&D Systems). The plate was developed by incubation with streptavidin-HRP and then substrate solution (R&D Systems Cat # DY999). Recombinant IL-23 (R&D Systems) was added as standard in the assay. The estimated detection range is from 0.1 to 10 ng/ml, and 1 ng/ml recombinant IL-12 heterodimer (Cell Sciences, MA) and p40 monomer (R&D Systems) were under detection limit. To compare with the inhibition of IL-23, the supernatant was also analyzed for IL-12 heterodimer and total p40 proteins using IL-12 specific ELISA kit (Cell Sciences) and p40 ELISA kit (R&D Systems) respectively.
# [2] = tested on: adjuvant arthritis (AA) in female Lewis rats; experiment: Treatment of adjuvant arthritis in rats; format: in vivo, rat; conditions: oral administration once a day for 12 days; experiments repeated four times
# Method: Treatment of adjuvant arthritis in rats: Adjuvant arthritis (AA) was induced in female Lewis rats by the intracutaneous injection (base of the tail) of 0.1 mL of a 10 mg/mL bacterial suspension made from ground, heat-killed Mycobacterium tuberculosis H37Ra suspended in incomplete Freund's adjuvant. Rats were given a test compound orally once a day for 12 days, starting the day following the induction. The development of polyarthritis was monitored daily by macroscopic inspection and assignment of an arthritis index to each animal, during the critical period (days 10 to 25 post-immunization).
# The intensity of polyarthritis was scored according to the following scheme: (a) Grade each paw from 0 to 3 based on erythema, swelling, and deformity of the joints: 0 for no erythema or swelling; 0.5 if swelling is detectable in at least one joint; 1 for mild swelling and erythema; 2 for swelling and erythema of both tarsus and carpus; and 3 for ankylosis and bony deformity. Maximum score for all 4 paws was thus 12. […]
# Experiments with the AA model were repeated four times. […] The arthritis score used in this model was a reflection of the inflammatory state of the structures monitored and the results therefore show the ability of the test compound to provide relief for this aspect of the pathology.
# [3] = tested on: colitis in T cell-reconstituted C.B-17 SCID mice; experiment: CD4+ CD45Rb high T cell-reconstituted SCID colitis model mice; format: in vivo, mouse
# Method: Treatment of Crohn's disease in CD4^+ CD45Rb^high T cell-reconstituted SCID colitis model mice: Spleen cells were prepared from normal female BALB/c mice. For cell purification, the following anti-mouse antibodies were used to label non-CD4^+ T cells: B220 (RA3-6B2), CD11b (M1/70), and CD8α (53-6.72). All antibodies were obtained from BioSource (Camarillo, Calif.). M450 anti-rat IgG-coated magnetic beads (Dynal, Oslo, Norway) were used to bind the antibodies and negative selection was accomplished using an MPC-1 magnetic concentrator. The enriched CD4^+ cells were then labeled for cell sorting with FITC-conjugated CD45RB (16A, Pharmingen, San Diego, Calif.) and PE-conjugated CD4 (CT-CD4, Caltag, Burlingame, Calif.). CD4^+ CD45RB^high cells were operationally defined as the upper 40% of CD45Rb-staining CD4^+ cells and sorted under sterile conditions by flow cytometry. Harvested cells were resuspended at 4×10^6/mL in PBS and injected 100 μL intraperitoneally into female C.B-17 SCID mice. Pyrimidine compounds of this invention (e.g., Compound 12) and/or vehicle was orally administered once a day, 5 days per week, starting the day following the transfer. The transplanted SCID mice were weighed weekly and their clinical condition was monitored.
# Colon tissue samples were fixed in 10% buffered formalin and embedded in paraffin. Sections (4 μm) collected from ascending, transverse, and descending colon were cut and stained with hematoxylin and eosin. The severity of colitis was determined based on histological examination of the distal colon sections, whereby the extent of colonic inflammation was graded on a scale of 0-3 in each of four criteria: crypt elongation, cell infiltration, depletion of goblet cells, and the number of crypt abscesses.
# LP lymphocytes were isolated from freshly obtained colonic specimens. After removal of payer's patches, the colon was washed in Ca/Mg-free HBSS, cut into 0.5 cm pieces and incubated twice in HBSS containing EDTA (0.75 mM), DTT (1 mM), and antibiotics (amphotericin 2.5 μg/mL, gentamicin 50 μg/mL from Sigma) at 37° C. for 15 min. Next, the tissue was digested further in RPMI containing 0.5 mg/mL collagenase D, 0.01 mg/mL DNase I (Boehringer Manheim), and antibiotics at 37° C. […]
# To measure cytokine production, 48-well plates were coated with 10 μg/mL murine anti-CD3ε antibody (145-2C11) in carbonate buffer (PH 9.6) overnight at 4° C. […] Murine IFNγ was measured using an ELISA kit from Endogen (Cambridge, Mass.), according to the manufacturer's instructions.
# The calculated colon-to-body weight ratio was consistent with the histological score, showing attenuation by treatment with the test compound.
smiles,measurement,setting,value
"Cc1cccc(C=NNc2cc(N3CCOCC3)nc(OCCc3ccccn3)n2)c1 [Compound 12, N-(3-methyl-benzylidene)-N′-[6-morpholin-4-yl-2-(2-pyridin-2-yl-ethoxy)-pyrimidin-4-yl]-hydrazine]",% Deduction (net increase in colon-to-body weight ratio),[1],about 30%
same,inhibition of IL-23,IL-23; IFN-γ/SAC and IFN-γ/LPS-stimulated human PBMC,inhibited by compound 12 in a dose-dependent manner
same,inhibitory activity against IL-23 compared with that against IL-12,IL-23; stimulated human PBMC,slightly lower than that against IL-12
same,inhibitory activity against IL-23 compared with that against p40,IL-23; stimulated human PBMC,comparable to that against p40
same,arthritic score,[2],reproducibly reduced the arthritic score
same,development of polyarthritis,[2],delayed the development of polyarthritis in a dose-dependent manner
same,IFNγ production by LP cells,"[3]; LP cells ex vivo in response to anti-CD3 antibody and anti-CD28 antibody, 48 h",greatly diminished the production
same,colon-to-body weight ratio,[3]; oral administration,attenuation
same,colonic inflammation (histological analysis),"[3]; oral administration once a day, 5 days per week, compared to vehicle control",reduced colonic inflammation
same,suppressive effect on colonic inflammation at 10 mg/kg,"[3]; oral, dose of 10 mg/kg",substantial reduction
